Source: US20100119599A1 (ARCHER PHARMACEUTICALS, INC., priority 2006, published 2010)

Assays:
Aβ1-40 = experiment: Measurement of Aβ1-40 in culture medium of 7W WT APP751 CHO cells by ELISA; assay type: cell-based, Chinese hamster; settings: for activity at 5 µM: Cricetulus griseus, Table 1, 5 μM test compound, CHO cells stably transfected with human APP751, culture medium, ELISA, control DMSO, 0 = no detectable amount; for Aβ1-40 (% of control): CHO cells that overexpress APP751, zero = below the detection limit of the assay
Aβ1-42 = experiment: Measurement of Aβ1-42 in culture medium of 7W WT APP751 CHO cells by ELISA; assay type: cell-based, Chinese hamster; settings: for activity at 5 µM: Cricetulus griseus, Table 1, 5 μM test compound, CHO cells stably transfected with human APP751, culture medium, ELISA, control DMSO, 0 = no detectable amount, read-out: Aβ1-42 (% of control); for Aβ1-42 (% of control): CHO cells that overexpress APP751, zero = below the detection limit of the assay
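Further: 5 µM test compound but RI-coded compounds at 10 µM for 24 hours.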

Compound	activity at 5 µM (Aβ1-40)	activity at 5 µM (Aβ1-42)	Aβ1-40 (% of control) (Aβ1-40)	Aβ1-42 (% of control) (Aβ1-42)
CCOC(=O)C1=C(C)NC2=C(C(=O)CCC2)C1c1cc2c(cc1[N+](=O)[O-])OCO2 (stereo not shown) [ST212479, ethyl 2-methyl-4-(6-nitro(2H-benzo[d]1,3-dioxolan-5-yl))-5-oxo-1,4,6,7,8-pentahydroquinoline-3-carboxylate]	60.2%	29.3%	–	–
CCOc1cc(C2C(C(=O)OCCOC)=C(C)NC3=C2C(=O)CC(c2ccccc2)C3)cc(Br)c1O (stereo not shown) [ST017060, 2-methoxyethyl4-(3-bromo-5-ethoxy-4-hydroxyphenyl)-2-methyl-5-oxo-7-phenyl-1,4,6,7,8-pentahydroquinoline-3-carboxylate]	39%	61.7%	–	–
CCOC(=O)C1=C(N)n2c(s/c(=C\c3ccc(C(C)C)cc3)c2=O)=C(S(=O)(=O)c2ccccc2)C1c1ccc(C(C)C)cc1 (stereo not shown) [ST011326]	–	–	54.94 % of control	72.95 % of control
CCCOC(=O)C1=C(C)NC2=C(C(=O)CCC2)C1c1ccccc1OC(C)C (stereo not shown) [ST013322, propyl 2-methyl-4-[2-(methylethoxy)phenyl]-5-oxo-1,4,6,7,8-pentahydroquinoline-3-carboxylate]	57.6%	99.7%	–	–
CC1=C(C(=O)OCCOc2ccccc2)C(c2cccc(Cl)c2)C2=C(CCCC2=O)N1 (stereo not shown) [ST015091, 2-phenoxyethyl 4-(3-chlorophenyl)-2-methyl-5-oxo-1,4,6,7,8-pentahydroquinoline-3-carboxylate]	62.4%	75.8%	–	–
CC(C)COc1cccc(/C=c2\sc3n(c2=O)C(N)=C(C#N)C(c2cccc(OCC(C)C)c2)C=3C#N)c1 (stereo not shown) [ST025023, 5-amino-7-[3-(2-methylpropoxy)phenyl]-2-{[3-(2-methylpropoxy)phenyl]methylene}-3-oxo-4,7-dihydro-1,3-thiazolidino[3,2-a]pyridine-6,8-dicarbonitrile]	–	–	68.13 % of control	85.29 % of control
CC1(C)CC(=O)C2=C(C1)N(Cc1ccccc1)C(N)=C(C#N)C2c1ccc(Cl)cc1 (stereo not shown) [ST047623, 2-amino-4-(4-chlorophenyl)-7,7-dimethyl-5-oxo-1-benzyl-1,4,6,7,8-pentahydroquinoline-3-carbonitrile]	95.4%	44.4%	–	–
COc1cccc(/C=c2/sc3n(c2=O)C(N)=C(C#N)C(c2cccc(OC)c2)C=3C#N)c1 (stereo not shown) [ST215713, 5-amino-7-(3-methoxyphenyl)-2-[(3-methoxyphenyl)methylene]-3-oxo-4,7-dihydro-1,3-thiazolidino[3,2-a]pyridine-6,8-dicarbonitrile]	–	–	69.2 % of control	80.48 % of control
CCCCNC(=O)CSC1=C(C#N)C(c2cccs2)C(C(=O)Nc2ccccc2)=C(C)N1 (stereo not shown) [RI_23]	–	–	49.3 % of control	35.9 % of control
COCCOC(=O)C1=C(C)NC2=C(C(=O)CC(c3ccc(OC)cc3)C2)C1c1ccc(Br)cc1 (stereo not shown) [ST017099, 2-methoxyethyl 4-(4-bromophenyl)-7-(4-methoxyphenyl)-2-methyl-5-oxo-1,4,6,7,8-pentahydroquinoline-3-carboxylate]	84.5%	57%	–	–
CCc1ccc(C2C(C(=O)OCc3ccccc3)=C(C)NC3=C2C(=O)CCC3)cc1 (stereo not shown) [ST015031, phenylmethyl 4-(4-ethylphenyl)-2-methyl-5-oxo-1,4,6,7,8-pentahydroquinoline-3-carboxylate]	33.1%	71.3%	–	–
CC1=C(C(=O)Nc2ccccc2)C(c2cccs2)C(C#N)=C(SCC(=O)Nc2cccc(C)c2)N1 (stereo not shown) [RI_91]	–	–	55.9 % of control	60.7 % of control
CCC(C)OC(=O)C1=C(C)NC2=C(C(=O)CC(c3ccc(Cl)cc3)C2)C1c1ccc(Cl)cc1 (stereo not shown) [ST017089, methylpropyl 4,7-bis(4-chlorophenyl)-2-methyl-5-oxo-1,4,6,7,8-pentahydroquinoline-3-carboxylate]	26.9%	82.5%	–	–
CCOC(=O)C1=C(N)n2c(s/c(=C/c3ccco3)c2=O)=C(C(=O)OCC)C1c1ccco1 (stereo not shown) [ST011765, ethyl 5-amino-6-(ethoxycarbonyl)-7-(2-furyl)-2-(2-furylmethylene)-3-oxo-4,7-dihydro-1,3-thiazolidino[3,2-a]pyridine-8-carboxylate]	–	–	42.57 % of control	29.42 % of control
CCOC(=O)C1=CN(c2cc(C)ccc2C)C=C(C(=O)OCC)C1c1cccc(OC)c1OC [ST052450, ethyl 4-(2,3-dimethoxyphenyl)-1-(2,5-dimethylphenyl)-5-(ethoxycarbonyl)-1,4-dihydropyridine-3-carboxylate]	–	–	5.249 % of control	12.04 % of control
COC(=O)C1=C(C)NC2=C(C(=O)CC(c3ccccc3Cl)C2)C1c1ccc([N+](=O)[O-])cc1 (stereo not shown) [ST015176, methyl 7-(2-chlorophenyl)-2-methyl-4-(4-nitrophenyl)-5-oxo-1,4,6,7,8-pentahydroquinoline-3-carboxylate]	17.4%	76.4%	–	–
N#CC1=C(N)N2C(=O)C(Cc3ccc(Br)cc3)SC2=C(C#N)C1c1ccc(Br)cc1 (stereo not shown) [RI_97]	–	–	76.7 % of control	74.9 % of control
N#CC1=C2NC(=O)c3c(sc4c3CCCCC4)N2C2=C(C(=O)CCC2)C1c1ccc(F)cc1 (stereo not shown) [ST041668, 5-(4-fluorophenyl)-4,8-dioxo-1,2,3,5,7,9,10,11,12,13,15-undecahydrocyclohepta[1,2-b]quinolino[1′,2′-2,1]pyrimidino[5,6-d]thiophene-6-carbonitrile]	88.7%	27.9%	–	–
CCOC(=O)C1=CN(c2ccc(F)cc2)C=C(C(=O)OCC)C1c1ccccc1OCC [ST052316, ethyl 5-(ethoxycarbonyl)-4-(2-ethoxyphenyl)-1-(4-fluorophenyl)-1,4-dihydropyridine-3-carboxylate]	–	–	68.09 % of control	40.03 % of control
CC1=C(C(=O)OC2CCCCC2)C(c2ccc(Cl)c(Cl)c2)C2=C(CC(c3ccccc3)CC2=O)N1 (stereo not shown) [ST013350, cyclohexyl 4-(3,4-dichlorophenyl)-2-methyl-5-oxo-7-phenyl-1,4,6,7,8-pentahydroquinoline-3-carboxylate]	25.1%	95.6%	–	–
CCOc1cc(C2C(C(=O)OCc3ccccc3)=C(C)NC3=C2C(=O)CC(c2ccccc2)C3)ccc1O (stereo not shown) [ST017228, phenylmethyl 4-(3-ethoxy-4-hydroxyphenyl)-2-methyl-5-oxo-7-phenyl-1,4,6,7,8-pentahydroquinoline-3-carboxylate]	95.6%	60.2%	–	–
COc1cc(C2C(C(=O)OCCOc3ccccc3)=C(C)NC3=C2C(=O)CC(C)(C)C3)ccc1OCc1ccccc1 (stereo not shown) [ST015071, 2-phenoxyethyl 4-[3-methoxy-4-(phenylmethoxy)phenyl]-2,7,7-trimethyl-5-oxo-1,4,6,7,8-pentahydroquinoline-3-carboxylate]	60.8%	88.3%	–	–
COC(=O)C1=C(C)NC2=C(C(=O)CC(c3cccs3)C2)C1c1ccc(C(F)(F)F)cc1 (stereo not shown) [ST052493, methyl 2-methyl-5-oxo-7-(2-thienyl)-4-[4-(trifluoromethyl)phenyl]-1,4,6,7,8-pentahydroquinoline-3-carboxylate]	39.9%	57.1%	–	–
